From patent publication US10954305B2 (Immunomedics, Inc., priority 2016, dated 2021)
“Also recorded” adds a separate entry of the source. Like-named read-outs stand apart in the source and are kept apart here.

Columns and labels:
recombinant human Trop-2 = biological target: T1, recombinant human Trop-2 (Homo sapiens, UniProt P09758); assay: Trop-2 ELISA; assay type: binding
T1 construct: purchased Sino Biological, Inc. 10428-H09H
T1 sequence (P09758 27-323): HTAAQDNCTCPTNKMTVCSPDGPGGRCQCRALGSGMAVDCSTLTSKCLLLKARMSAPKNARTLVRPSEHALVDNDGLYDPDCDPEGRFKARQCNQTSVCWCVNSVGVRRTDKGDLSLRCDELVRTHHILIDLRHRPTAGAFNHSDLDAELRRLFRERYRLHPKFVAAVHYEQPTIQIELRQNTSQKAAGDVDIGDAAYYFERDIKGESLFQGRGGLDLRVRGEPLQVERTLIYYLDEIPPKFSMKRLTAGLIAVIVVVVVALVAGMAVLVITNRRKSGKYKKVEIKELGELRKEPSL
Experimental: (§1) Recombinant human Trop-2 with a His-tag (Sino Biological, Inc., Bejing, China; Cat #10428-H09H) and recombinant mouse Trop-2 with a His-Tag (Sino Biological, Inc., Cat #50922-MO8H) were plated onto Ni-NTA Hissorb strips (Qiagen GmbH Cat #35023) at 1 μg for 1 h at room temperature. The plate was washed four times with PBS-Tween (0.05%) wash buffer. Serial dilutions of hRS7 were made in 1% BSA-PBS dilution buffer to a test range of 0.1 ng/mL to 10 μg/mL. The plates were then incubated for 2 h at room temperature before being washed four times followed by the addition of a peroxidase conjugated secondary antibody (goat anti-human, Fc fragment specific; Jackson Immunoresearch Cat #109-036-098). After a 45-min incubation, the plate was washed and a substrate solution (o-phenylenediamine dihydrochloride (OPD); Sigma, Cat #P828) added to all the wells. Plates were incubated in the dark for 15 min before the reaction was stopped with 4N sulfuric acid. The plates were read at 450 nm on Biotek ELX808 plate reader. Data were analyzed and graphed using Prism GraphPad Software (v4.03) (Advanced Graphics Software, Inc.; Encinitas, Calif.).

recombinant mouse Trop-2 = biological target: T2, recombinant mouse Trop-2 (Mus musculus, UniProt Q8BGV3); assay: Trop-2 ELISA; assay type: binding
T2 construct: purchased Sino Biological, Inc. 50922-MO8H
T2 sequence (Q8BGV3 25-317): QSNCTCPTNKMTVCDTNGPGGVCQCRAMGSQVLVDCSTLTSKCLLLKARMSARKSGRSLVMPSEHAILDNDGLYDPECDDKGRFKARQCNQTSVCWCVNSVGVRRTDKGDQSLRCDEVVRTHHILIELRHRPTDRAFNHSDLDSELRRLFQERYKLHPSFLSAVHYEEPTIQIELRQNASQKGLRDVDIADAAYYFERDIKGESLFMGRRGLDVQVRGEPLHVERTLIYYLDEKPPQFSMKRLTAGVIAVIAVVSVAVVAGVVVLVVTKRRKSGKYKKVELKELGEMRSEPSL
Experimental: as §1

Capan-1 tumors = assay: CL2 vs CL2A linker, Capan-1 xenograft; assay type: in vivo, mice; details: 0.2 mg/kg SN-38 twice weekly × 4 weeks
Experimental: FIG. 4C. […] Capan-1 mice (N=10) were treated with 0.2 mg/kg ADC and tumors measured weekly.

p21^Waf1/Cip1 in Calu-3 = assay: p21Waf1/Cip1 expression; assay type: cell-based, human
Text: SN-38 is known to activate several signaling pathways in cells, leading to apoptosis (e.g., Cusack et al., 2001, Cancer Res 61:3535-40; Liu et al. 2009, Cancer Lett 274:47-53; Lagadec et al., 2008, Br J Cancer 98:335-44). Our initial studies examined the expression of 2 proteins involved in early signaling events (p21^Waf1/Cip1 and p53) and 1 late apoptotic event [cleavage of poly-ADP-ribose polymerase (PARP)] in vitro (not shown).

[1] = tolerability in Cynomolgus monkeys; assay type: in vivo
Experimental: FIG. 6C. […] All animals were bled on day −1, 3, and 6. Four monkeys were bled on day 11 in the 0.96 mg/kg group, 3 in the 1.92 mg/kg group. Changes in neutrophil counts in Cynomolgus monkeys.
FIG. 6D. […] All animals were bled on day −1, 3, and 6. Four monkeys were bled on day 11 in the 0.96 mg/kg group, 3 in the 1.92 mg/kg group. Changes in platelet counts in Cynomolgus monkeys.

[2] = tested on: triple-negative breast cancer; assay: Phase I/II clinical trial of IMMU-132, TNBC; assay type: in vivo, human
Text: […] […] Previous treatments included cyclophosphamide, doxorubicin, carboplatin, gemcitabine, capecitabine, eribulin, cisplatinum, anastrozole, vinorelbine, bevacizumab and tamoxifen. […] The median time to progression in this heavily pretreated population of TNBC patients was 9.4 months, with a range of 2.9 to 14.2 months to date. However, 72% of patients in the study were still ongoing treatment.

esophageal cancer = assay: Phase I/II clinical trial of IMMU-132, esophageal; assay type: in vivo, human
[3] = Phase I/II clinical trial of IMMU-132, immunogenicity; assay type: in vivo, human; details: repeated dosing
HCC1395 (Trop-2−) = assay: dsDNA breaks, rH2AX flow cytometry; assay type: cell-based, human; details: untreated baseline 122
Experimental: For drug activity testing, HCC1806 and HCC1395 TNBC cell lines cells were seeded in 6-well plates at 5×10^5 cells/well and held at 37° C. overnight. […] The signal intensity of rH2AX was measured by flow cytometry using a BD FACSCalibur (BD Biosciences, San Jose, Calif.).
The cells were then washed to remove unbound conjugate, and then incubated overnight at 37° C.

MDA-MB-468 TNBC tumors = assay: MDA-MB-468 TNBC xenograft therapy; assay type: in vivo, nude mice; details: one animal each, tumors progressed after irinotecan
Text: The size of the tumors in the individual animals of this group from the onset of tumor transplantation is given.

[4] = mouse, in vivo
[5] = tested on: triple-negative breast cancer; details: 58 evaluable mTNBC patients, RECIST1.1 (Bardia et al.); cited from earlier work
[6] = tolerability in Swiss-Webster mice; details: normal mice, over 1 week

Which Kd (recombinant human Trop-2) does the source give for hRS7 IgG here?
The Kd was 0.3 nM.

What about the cross-reactivity (recombinant mouse Trop-2) of the same substance?
Its cross-reactivity is “no cross-reactivity with the murine Trop-2”.

With IMMU-132 as the substance, how does the “mice tumor-free at end of study (day 140)” value (Capan-1 tumors) read?
The value was 50%.

And the “p21^Waf1/CiP1 expression over free SN-38” value (p21^Waf1/Cip1 in Calu-3)?
Its value is “more than 2 fold”.

What about the MTD ([1]; cynomolgus monkey, in vivo) of the same substance?
The MTD was 2×0.96 and 1.92.

What about the “human equivalent dose of MTD” value ([1]; cynomolgus monkey, in vivo) of the same substance?
The value was 2×0.3 to 0.6.

And the blood counts ([1]; cynomolgus monkey, in vivo, 0.96 mg/kg)?
Its blood counts is “only transient decreases in blood counts”.

And the tolerated dose ([1]; mild and reversible toxicity)?
Its tolerated dose is 0.96 mg/kg/dose.

What about the “confirmed complete responses (CR)” value ([2]; 10 mg/kg) of the same substance?
The value was 2.

What about the “partial responses (PR)” value ([2]; 10 mg/kg) of the same substance?
Its value is 13.

What about the “time to progression, range” value ([2]; 10 mg/kg) of the same substance?
Its value is 2.9 to 14.2 months.

What about the “clinical benefit rate (PR+SD>6 months)” value ([2]; 17 TNBC patients) of the same substance?
The value was 46%.

And the PD ([2]; of 8 assessable patients)?
The PD was 2.

And the PR ([2]; of 8 assessable patients)?
The PR was 2.

And the PD (esophageal cancer; of 4 assessable patients)?
The PD was 1.

What about the PR (esophageal cancer; of 4 assessable patients) of the same substance?
The PR was 1.

And the “duration of SD” value (esophageal cancer; patient 25, 18 then 13.5 mg/kg)?
Its value is 30 weeks.

And the “anti-hRS7 / anti-SN-38 antibody response” value [3]?
Its value is “No anti-hRS7 or anti-SN-38 antibodies were detected; also recorded: no anti-hRS7 or anti-SN-38 antibody response has been detected; also recorded: none of the patients developed an antibody response to IMMU-132 or SN-38”.

What about the “anti-hRS7 / anti-SN-38 antibody response” value ([3]; listed as sacituzumab govitecan) of the same substance?
The value was “no antibody response to the hRS7 IgG or SN-38 was detected”.

And the “Median fluorescence intensity (rH2AX)” value (HCC1395 (Trop-2−))?
The value was 123.

And the “decrease in tumor size on re-treatment” value (MDA-MB-468 TNBC tumors)?
Its value is 60%.

And the “chloride levels, range” value [4]?
Its value is 116 to 127 mmol/L.

And the “glucose levels, range” value ([4]; 8 mg/kg)?
Its value is 273 to 320 mg/dL.

And the PD (small cell lung cancer; of 4 assessable patients)?
Its PD is 2.

What about the PR (small cell lung cancer; of 4 assessable patients) of the same substance?
The PR was 2.

And the PR (small cell lung cancer; out of 25 assessable patients, 8 or 10 mg/kg)?
The PR was 6.

And the “interim objective response rate” value [5]?
The value was 31%.

And the “cumulative dose without acute toxicity” value [6]?
The value was 24 mg/kg SN-38.
